Experimental data reported in PMC4529466, “Intradermal insulin infusion achieves faster insulin action than subcutaneous infusion for 3-day wear” (Drug Delivery and Translational Research, 2015).

System: blood glucose
Test: Postprandial blood glucose pharmacodynamics after meal bolus, 3-day ID vs SC infusion
Assay type: in vivo, human (T1DM patients)
Details: SC; for BGavg0–1 / BGmax0–1 / ΔAUC-BG0–1 / ΔBGmax0–1 / BGavg0–1.5 / BGmax0–1.5 / ΔAUC-BG0–1.5 / ΔBGmax0–1.5 / BGavg0–2 / BGmax0–2 / ΔAUC-BG0–2 / ΔBGmax0–2 / BGavg0–4 / BGmax0–4 / ΔAUC-BG0–4 / ΔBGmax0–4 / BG1 / ΔBG1 / BG1.5 / ΔBG1.5 / BG2 / ΔBG2 / BG4 / ΔBG4: mean ± SD; for BG1 / ΔBG1: at 1 h; for BG1.5 / ΔBG1.5: at 1.5 h; for BG2 / ΔBG2: at 2 h; for BG4 / ΔBG4: at 4 h
Description: This was a single center, open-label, two-period crossover study, randomized by infusion order, in T1DM patients on continuous subcutaneous insulin infusion (CSII). The protocol was approved by an independent ethics committee (Ethikkommission der Ärztekammer Nordrhein, Düsseldorf, Germany), appropriate regulatory bodies (German Federal Institute for Drugs and Medical Devices (BfArM)), and conducted in compliance with good clinical practice (GCP), the Declaration of Helsinki, and applicable regulatory requirements.
The study was completed over a multi-week period consisting of three study visits: a screening visit (V1) and two interventional visits (V2 and V3). After establishing eligibility and enrollment, patients received treatment during two interventional visits: one SC and one ID basal/bolus infusion of insulin aspart (NovoRapid® U-100, Novo Nordisk, Copenhagen, Denmark) administered over 3 days in a randomized order.
Individual meal bolus doses were determined based on patient self-reported insulin to carbohydrate ratios and insulin sensitivity, historical self-reported insulin usage for meal coverage, and clinician review and adjustment of insulin usage during the in-clinic BG stabilization period the evening prior to the first morning meal. Basal insulin infusion rates were initiated based on the patient’s known daily delivery profile and could be adjusted by the clinician to maintain levels within 70–160 mg/dL according to a predetermined sliding scale and hourly changes in glycemia. A continuous glucose monitor (Seven Plus®, DexCom Inc., San Diego, CA) calibrated per manufacturer’s recommendations was applied to continuously monitor glycemia as a safety measure, in addition to periodic blood sampling for BG determination.
After maintaining targeted blood glucose range during the preceding night, bolus insulin doses were administered via the respective infusion catheter prior to standardized breakfast and lunch test meals on each of the three treatment days. Each meal insulin bolus was calculated based on the patient’s insulin sensitivity and previous hours change in BG per sliding scale then delivered immediately prior to breakfast (t = 0 min) and lunch (t = 360 min) consumption. Breakfast was a high glycemic index (60 g carbohydrates) solid meal, and lunch was a mixed meal based on the individual’s calculated daily energy intake and equivalent in caloric composition by day. Breakfast and lunch meals were consumed within 15 min followed by serial blood sampling with BG monitoring for a period of 6 and 4 h, respectively. Patients were asked to remain sedentary for 2 h after meals. Identical study procedures were utilized for the remaining dosing visit days (Fig. 2).
To assess insulin absorption kinetics and glycemic response, blood samples for measurements of insulin aspart and blood glucose in serum were drawn at predefined time points throughout dosing visits. Serial samples for safety BG determination, but not PK analysis, were obtained at a minimum every 2 h. Meal PK/PD analysis samples were acquired immediately pre-bolus and for 4–6 h post-bolus for breakfast and lunch meals, with a higher frequency during the first 2 h to capture insulin and BG peak levels {Post-bolus breakfast time points (min): 0, 10, 15, 20, 25, 30, 35, 40, 45, 50, 55, 60, 65, 70, 80, 90, 120, 150, 180, 210, 240, 300, 330, 360; Post-bolus lunch time points (min): 0, 10, 20, 30, 40, 50, 60, 70, 80, 90, 120, 180, 240, 300}. Sampling times were based on previous clinical study experience for bolus microneedle insulin delivery and had increased sampling frequency in the first 90 min post-delivery to capture the rapid insulin peaks from microneedle ID delivery. Blood samples for evening meal and basal period PK assessment could not be obtained due to daily blood draw volume limits for patient safety. Serum insulin aspart was measured by a third party laboratory (IKFE GmbH, Mainz, Germany) using a validated insulin assay (Invitron ELISA kit). […]

[1] = 0–1 h, Days 1–3 combined, all test meals, n = 150–156
[2] = 0–1 h, across all study days and meals
[3] = 0–1.5 h, Days 1–3 combined, all test meals, n = 150–156
[4] = 0–1.5 h, across all study days and meals
[5] = 0–2 h, Days 1–3 combined, all test meals, n = 150–156
[6] = 0–2 h, across all study days and meals
[7] = 0–4 h, Days 1–3 combined, all test meals, n = 150–156
[8] = Days 1–3 combined, all test meals, n = 150–156

insulin aspart
BG at 1 h: 165 | BGavg0–1 (0–1 h, Day 1, across meals): 138 ± 33.4 mg/dL | BGmax0–1 (0–1 h, Day 1, across meals): 166 ± 40.1 mg/dL | ΔAUC-BG0–1 (0–1 h, Day 1, across meals): 29.1 ± 25.7 mg·h/dL | ΔBGmax0–1 (0–1 h, Day 1, across meals): 57.1 ± 36.0 mg/dL | BGavg0–1 (0–1 h, Day 2, across meals): 147 ± 32.5 mg/dL | BGmax0–1 (0–1 h, Day 2, across meals): 176 ± 39.2 mg/dL | ΔAUC-BG0–1 (0–1 h, Day 2, across meals): 26.7 ± 20.9 mg·h/dL | ΔBGmax0–1 (0–1 h, Day 2, across meals): 55.8 ± 31.0 mg/dL | BGavg0–1 (0–1 h, Day 3, across meals): 145 ± 30.3 mg/dL | BGmax0–1 (0–1 h, Day 3, across meals): 175 ± 37.9 mg/dL | ΔAUC-BG0–1 (0–1 h, Day 3, across meals): 26.5 ± 19.5 mg·h/dL | ΔBGmax0–1 (0–1 h, Day 3, across meals): 57.2 ± 33.0 mg/dL | BGavg0–1 [1]: 143 ± 32.2 mg/dL | BGmax0–1 [1]: 172 ± 39.2 mg/dL | ΔAUC-BG0–1 [1]: 27.5 ± 22.2 mg·h/dL | ΔBGmax0–1 [1]: 56.7 ± 33.3 mg/dL | Intra-subject variability of BGavg [2]: 18.2 %CV | Intra-subject variability of BGmax [2]: 18.1 %CV | BGavg0–1.5 (0–1.5 h, Day 1, across meals): 144 ± 36.0 mg/dL | BGmax0–1.5 (0–1.5 h, Day 1, across meals): 174 ± 43.6 mg/dL | ΔAUC-BG0–1.5 (0–1.5 h, Day 1, across meals): 53.4 ± 46.7 mg·h/dL | ΔBGmax0–1.5 (0–1.5 h, Day 1, across meals): 65.0 ± 42.3 mg/dL | BGavg0–1.5 (0–1.5 h, Day 2, across meals): 154 ± 35.3 mg/dL | BGmax0–1.5 (0–1.5 h, Day 2, across meals): 182 ± 41.7 mg/dL | ΔAUC-BG0–1.5 (0–1.5 h, Day 2, across meals): 50.8 ± 40.9 mg·h/dL | ΔBGmax0–1.5 (0–1.5 h, Day 2, across meals): 61.6 ± 33.2 mg/dL | BGavg0–1.5 (0–1.5 h, Day 3, across meals): 152 ± 33.4 mg/dL | BGmax0–1.5 (0–1.5 h, Day 3, across meals): 182 ± 40.0 mg/dL | ΔAUC-BG0–1.5 (0–1.5 h, Day 3, across meals): 51.3 ± 39.8 mg·h/dL | ΔBGmax0–1.5 (0–1.5 h, Day 3, across meals): 63.9 ± 36.8 mg/dL | BGavg0–1.5 [3]: 150 ± 35.0 mg/dL | BGmax0–1.5 [3]: 179 ± 41.8 mg/dL | ΔAUC-BG0–1.5 [3]: 51.9 ± 42.5 mg·h/dL | ΔBGmax0–1.5 [3]: 63.6 ± 37.6 mg/dL | Intra-subject variability of BGavg [4]: 18.2 %CV | Intra-subject variability of BGmax [4]: 17.9 %CV | BGavg0–2 (0–2 h, Day 1, across meals): 147 ± 39.3 mg/dL | BGmax0–2 (0–2 h, Day 1, across meals): 178 ± 49.1 mg/dL | ΔAUC-BG0–2 (0–2 h, Day 1, across meals): 77.0 ± 73.2 mg·h/dL | ΔBGmax0–2 (0–2 h, Day 1, across meals): 69.7 ± 49.0 mg/dL | BGavg0–2 (0–2 h, Day 2, across meals): 157 ± 38.2 mg/dL | BGmax0–2 (0–2 h, Day 2, across meals): 186 ± 43.4 mg/dL | ΔAUC-BG0–2 (0–2 h, Day 2, across meals): 73.6 ± 63.3 mg·h/dL | ΔBGmax0–2 (0–2 h, Day 2, across meals): 65.5 ± 34.7 mg/dL | BGavg0–2 (0–2 h, Day 3, across meals): 155 ± 36.1 mg/dL | BGmax0–2 (0–2 h, Day 3, across meals): 186 ± 42.4 mg/dL | ΔAUC-BG0–2 (0–2 h, Day 3, across meals): 75.1 ± 63.0 mg·h/dL | ΔBGmax0–2 (0–2 h, Day 3, across meals): 68.1 ± 40.3 mg/dL | BGavg0–2 [5]: 153 ± 38.0 mg/dL | BGmax0–2 [5]: 183 ± 45.1 mg/dL | ΔAUC-BG0–2 [5]: 75.3 ± 66.5 mg·h/dL | ΔBGmax0–2 [5]: 67.8 ± 41.8 mg/dL | Intra-subject variability of BGavg [6]: 19.3 %CV | Intra-subject variability of BGmax [6]: 18.5 %CV | BGavg0–4 (0–4 h, Day 1, across meals): 142 ± 41.2 mg/dL | BGmax0–4 (0–4 h, Day 1, across meals): 179 ± 44.4 mg/dL | ΔAUC-BG0–4 (0–4 h, Day 1, across meals): 133 ± 160 mg·h/dL | ΔBGmax0–4 (0–4 h, Day 1, across meals): 76.5 ± 54.6 mg/dL | BGavg0–4 (0–4 h, Day 2, across meals): 155 ± 44.0 mg/dL | BGmax0–4 (0–4 h, Day 2, across meals): 193 ± 49.3 mg/dL | ΔAUC-BG0–4 (0–4 h, Day 2, across meals): 140 ± 157 mg·h/dL | ΔBGmax0–4 (0–4 h, Day 2, across meals): 72.3 ± 40.0 mg/dL | BGavg0–4 (0–4 h, Day 3, across meals): 156 ± 40.1 mg/dL | BGmax0–4 (0–4 h, Day 3, across meals): 194 ± 41.7 mg/dL | ΔAUC-BG0–4 (0–4 h, Day 3, across meals): 154 ± 148 mg·h/dL | ΔBGmax0–4 (0–4 h, Day 3, across meals): 76.2 ± 40.4 mg/dL | BGavg0–4 [7]: 151 ± 42.0 mg/dL | BGmax0–4 [7]: 188 ± 45.4 mg/dL | ΔAUC-BG0–4 [7]: 142 ± 155 mg·h/dL | ΔBGmax0–4 [7]: 75.0 ± 45.6 mg/dL | Intra-subject variability of BGmax (0–4 h, across all study days and meals): 18.0 %CV | BG1 (Day 1, across meals): 158 ± 43.8 mg/dL | ΔBG1 (Day 1, across meals): 49.0 ± 41.5 mg/dL | BG1 (Day 2, across meals): 169 ± 40.9 mg/dL | ΔBG1 (Day 2, across meals): 48.8 ± 37.9 mg/dL | BG1 (Day 3, across meals): 170 ± 40.9 mg/dL | ΔBG1 (Day 3, across meals): 51.8 ± 37.9 mg/dL | BG1 [8]: 165 ± 42.1 mg/dL | ΔBG1 [8]: 49.8 ± 39.0 mg/dL | BG1.5 (Day 1, across meals): 156 ± 51.2 mg/dL | ΔBG1.5 (Day 1, across meals): 47.5 ± 51.9 mg/dL | BG1.5 (Day 2, across meals): 167 ± 48.3 mg/dL | ΔBG1.5 (Day 2, across meals): 47.2 ± 44.8 mg/dL | BG1.5 (Day 3, across meals): 167 ± 48.3 mg/dL | ΔBG1.5 (Day 3, across meals): 48.9 ± 48.1 mg/dL | BG1.5 [8]: 163 ± 49.3 mg/dL | ΔBG1.5 [8]: 47.9 ± 48.2 mg/dL | BG2 (Day 1, across meals): 152 ± 60.1 mg/dL | ΔBG2 (Day 1, across meals): 43.7 ± 62.7 mg/dL | BG2 (Day 2, across meals): 164 ± 54.2 mg/dL | ΔBG2 (Day 2, across meals): 44.0 ± 51.2 mg/dL | BG2 (Day 3, across meals): 164 ± 52.3 mg/dL | ΔBG2 (Day 3, across meals): 46.2 ± 52.4 mg/dL | BG2 [8]: 160 ± 55.7 mg/dL | ΔBG2 [8]: 44.6 ± 55.6 mg/dL | BG4 (Day 1, across meals): 139 ± 52.4 mg/dL | ΔBG4 (Day 1, across meals): 29.7 ± 53.3 mg/dL | BG4 (Day 2, across meals): 148 ± 59.4 mg/dL | ΔBG4 (Day 2, across meals): 27.7 ± 56.8 mg/dL | BG4 (Day 3, across meals): 153 ± 48.9 mg/dL | ΔBG4 (Day 3, across meals): 35.1 ± 47.2 mg/dL | BG4 [8]: 146 ± 53.7 mg/dL | ΔBG4 [8]: 30.8 ± 52.3 mg/dL | Intra-subject variability of BG (time 1 h, across all study days and meals): 20.2 %CV | Intra-subject variability of BG (time 1.5 h, across all study days and meals): 24.5 %CV | Intra-subject variability of ΔBG (time 2 h, across all study days and meals): 61.4 %CV
